{"source": "patent US20040097737A1", "about": "(priority 2001, published 2004)", "test_system": "patients diagnosed as acute attack of vertigo", "details": "human, in vivo"}
{"smiles": "OC(CCCN1CCCCC1)(c1ccccc1)c1ccccc1", "note": "[Diphenidol]", "values": [{"measurement": "Total effective (patients effective/sample)", "result": "19/28"}, {"measurement": "Total effective percentage", "result": 67.9, "unit": "%"}]}
